How the values were obtained:
Adenosine receptor A2a = Adenosine receptor A2a (Homo sapiens, UniProt P29274); assay: A2A Binding Affinity Using SPA
Adenosine receptor A2b = target: T1, Adenosine receptor A2b (Homo sapiens, UniProt P29275); assay: A2B Binding Affinity Assay
T1 sequence (P29275 whole entry): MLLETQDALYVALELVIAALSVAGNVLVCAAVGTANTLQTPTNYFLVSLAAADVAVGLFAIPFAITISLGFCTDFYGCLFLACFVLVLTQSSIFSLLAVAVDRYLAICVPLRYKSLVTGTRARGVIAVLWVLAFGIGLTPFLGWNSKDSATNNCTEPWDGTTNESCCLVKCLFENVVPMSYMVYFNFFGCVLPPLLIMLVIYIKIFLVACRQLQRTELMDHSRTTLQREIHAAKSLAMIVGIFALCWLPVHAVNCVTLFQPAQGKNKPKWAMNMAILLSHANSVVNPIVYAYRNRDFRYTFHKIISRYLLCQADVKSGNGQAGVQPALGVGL

Adenosine receptor A2a, sequence (P29274 whole entry): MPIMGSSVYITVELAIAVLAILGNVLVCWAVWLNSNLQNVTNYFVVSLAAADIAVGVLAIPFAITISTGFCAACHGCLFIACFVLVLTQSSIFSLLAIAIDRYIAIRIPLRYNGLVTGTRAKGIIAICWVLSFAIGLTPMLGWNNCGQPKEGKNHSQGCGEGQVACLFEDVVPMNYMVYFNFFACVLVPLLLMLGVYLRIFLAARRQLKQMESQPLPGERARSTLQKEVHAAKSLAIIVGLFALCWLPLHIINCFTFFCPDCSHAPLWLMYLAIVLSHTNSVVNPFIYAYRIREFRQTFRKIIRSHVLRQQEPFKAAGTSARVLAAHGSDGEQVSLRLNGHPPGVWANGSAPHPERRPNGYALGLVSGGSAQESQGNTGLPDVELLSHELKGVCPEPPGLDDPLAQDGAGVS

Row | SMILES | IC50 (Adenosine receptor A2a) | IC50 (Adenosine receptor A2b)
1 | COc1ccc2c(c1)nc(N)n1nc([C@H]3C[C@H](c4ncc(C(C)(C)O)cn4)C3)nc21 [US20250171447, Ex-61] | 42.6 nM | –
2 | COc1ccc2c(c1)nc(N)n1nc([C@H]3C[C@@H](c4ncc(C(C)(C)O)cn4)C3)nc21 [US20250171447, Ex-62] | 107 nM | –
3 | COc1cc2nc(N)n3nc([C@H]4C[C@@H](c5ncc(C(C)(C)N)nc5C)C4)nc3c2cc1F [US20250171447, Ex-132] | 37.2 nM | –
4 | COc1cccc2c1nc(N)n1nc([C@H]3C[C@H](c4ccc(C(C)(C)O)nc4)C3)nc21 [US20250171447, Ex-53] | 8.8 nM | –
5 | COc1ccc2c(c1)nc(N)n1nc([C@H]3C[C@H](c4ccc(C(C)(C)O)cn4)C3)nc21 [US20250171447, Ex-60] | 7.9 nM | –
6 | COc1cccc2c1nc(N)n1nc(C3CC(c4ccc(C5(C#N)CNC5)nc4)C3)nc21 (centres undefined) [US20250171447, Ex-116] | 3.1 nM | –
7 | CC(C)(O)c1ccc([C@H]2C[C@H](c3nc4c5cc(F)cc(F)c5nc(N)n4n3)C2)nc1 [US20250171447, Ex-64] | 16 nM | 1.7 nM
8 | Cc1nc(C(C)(C)N)cnc1[C@H]1C[C@@H](c2nc3c4cccc(Cl)c4nc(N)n3n2)C1 [US20250171447, Ex-128] | 52 nM | –
9 | COc1ccc2c(c1)nc(N)n1nc([C@H]3C[C@@H](c4cnc(C(C)(C)O)cn4)C3)nc21 [US20250171447, Ex-57] | 47.4 nM | –
10 | COc1cc(F)cc2c1nc(N)n1nc(C3CC3c3ccc(F)cc3)nc21 (centres undefined) [US20250171447, Ex-31] | 44.2 nM | 27.3 nM
11 | COc1cccc2c1nc(N)n1nc([C@H]3C[C@H](c4ccc(C(C)(C)N)nc4)C3)nc21 [US20250171447, Ex-84] | 8.2 nM | –
12 | COc1cccc2c1nc(N)n1nc([C@H]3C[C@H](c4ccc(CC(C)(C)O)cn4)C3)nc21 [US20250171447, Ex-66] | 2 nM | –
13 | COc1cccc2c1nc(N)n1nc(C3CC(c4ncc(C(C)(C)N)cc4Cl)C3)nc21 (centres undefined) [US20250171447, Ex-87] | 0.8 nM | 2.7 nM
14 | COc1cc2nc(N)n3nc([C@H]4C[C@H](c5ncc(C(C)(C)N)nc5C)C4)nc3c2cc1F [US20250171447, Ex-131] | 2.5 nM | –
15 | CC(C)(O)c1ccc([C@H]2C[C@@H](c3nc4c5cc(F)cc(F)c5nc(N)n4n3)C2)nc1 [US20250171447, Ex-63] | 7 nM | 0.4 nM
16 | Cc1nc(C(C)(C)N)cnc1[C@H]1C[C@H](c2nc3c4cc(F)cc(F)c4nc(N)n3n2)C1 [US20250171447, Ex-129] | 4.5 nM | –

Row | SMILES | IC50 (Adenosine receptor A2a) | IC50 (Adenosine receptor A2b)
17 | COc1ccc2c(c1)nc(N)n1nc([C@H]3C[C@@H](c4ccc(C(C)(C)O)cn4)C3)nc21 [US20250171447, Ex-59] | 5.7 nM | –
18 | COc1cc(F)cc2c1nc(N)n1nc(C3CC3(F)c3ccccc3)nc21 (centres undefined) [US20250171447, Ex-39] | 0.6 nM | 71.9 nM
19 | COc1cccc2c1nc(N)n1nc(C3CC3CO)nc21 (centres undefined) [US20250171447, Ex-36] | 20.5 nM | 805 nM
20 | COc1cc(F)cc2c1nc(N)n1nc([C@H]3C[C@@H](c4ccc(C(C)(C)O)cn4)C3)nc21 [US20250171447, Ex-45] | 1.6 nM | 6.2 nM
21 | COc1cc(F)cc2c1nc(N)n1nc(C3CC3(F)c3ccccc3)nc21 (centres undefined) [US20250171447, Ex-29] | 3.5 nM | 45 nM
22 | COc1ccc2c(c1)nc(N)n1nc([C@H]3C[C@@H](c4ccc(CC(C)(C)O)cn4)C3)nc21 [US20250171447, Ex-55] | 15.5 nM | –
23 | COc1cccc2c1nc(N)n1nc([C@H]3C[C@@H](c4ccc(CC(C)(C)O)cn4)C3)nc21 [US20250171447, Ex-65] | 2.1 nM | –
24 | COc1cccc2c1nc(N)n1nc([C@H]3C[C@@H](c4ccc(C(C)(C)O)nc4)C3)nc21 [US20250171447, Ex-54] | 1.1 nM | 6.9 nM
25 | COc1cc(F)cc2c1nc(N)n1nc([C@H]3C[C@H](c4ccc(C(C)(C)O)cn4)C3)nc21 [US20250171447, Ex-44] | 2.4 nM | –
26 | COc1cc(F)cc2c1nc(N)n1nc(C3CC3(F)c3ccccc3)nc21 (centres undefined) [US20250171447, Ex-33] | 472 nM | 62.4 nM
27 | COc1cc(F)cc2c1nc(N)n1nc(C3CC3(F)c3ccccc3)nc21 (centres undefined) [US20250171447, Ex-32] | 377 nM | 601 nM
28 | Cc1nc(C(C)(C)N)cnc1[C@H]1C[C@@H](c2nc3c4cc(F)cc(F)c4nc(N)n3n2)C1 [US20250171447, Ex-130] | 89.2 nM | –
29 | COc1cccc2c1nc(N)n1nc(C3CC3CO)nc21 (centres undefined) [US20250171447, Ex-35] | 7.3 nM | 105 nM
30 | COc1ccc2c(c1)nc(N)n1nc([C@H]3C[C@H](c4cnc(C(C)(C)O)cn4)C3)nc21 [US20250171447, Ex-58] | 136 nM | –
31 | COc1ccc2c(c1)nc(N)n1nc([C@H]3C[C@H](c4ccc(CC(C)(C)O)cn4)C3)nc21 [US20250171447, Ex-56] | 17.8 nM | –
32 | COc1cccc2c1nc(N)n1nc([C@H]3C[C@H](c4ccc(C5(O)CC(F)(F)C5)cn4)C3)nc21 [US20250171447, Ex-103] | 1.1 nM | –
